Key:
strain sAA1082 = assay: Bioreactor conversion of ethyl decanoate to sebacic acid (Example 73); format: cell-based, Candida
Method: (§1) By conversion tests for ethyl decanoate were performed in 0.5 L Infors HT Multifors bioreactors (Infors AG, Switzerland) with working volumes of 0.4 L each. […] Fermentation medium. […] Bioreactors were equipped with two rushton impellers rotating at 1000 rpm. Bioreactors were inoculated to an OD of approximately 0.2 and growth continued for approximately 12-14 hours, at which point the conversion phase was initiated by evenly space boluses of ethyl decanoate. Culture pH was kept constant at 5.8 during the growth phase by automatic addition of 6 N KOH and temperature and airflow were controlled at 30° C. and 1 vvm respectively.
(§2) At induction, the pH was changed to 6.2 and maintained by addition of 6N KOH. Bioreactors were induced with an initial 4.0 ml bolus of decane for 6 hours with an airflow rate of 0.25 vvm to minimize evaporation.
(§3) Following this initial 6 hour induction, airflow was increased to 1 vvm and 58 μl of ethyl decanoate was added every 30 minutes for the next 6 hours. Ethyl decanoate boluses were then increased to 116 μl at a frequency of once per hour for the next 36 hours. In addition, a co-feed of dextrose was fed at a rate of 1.25 g/L-h. Final samples were taken 12 hours after the final ethyl decanoate bolus. Yield calculations were made for all cultures taking only added ethyl decanoate into account due to the volatility of decane and the lack of decanedioic acid formation following the initial induction period.

strain sAA2178 = assay: as above; format: cell-based, Candida
Method: as §1, §2, §3

[1] = system: Candida strain ATCC 20962; assay: as above; format: cell-based; conditions: decane induction
Method: as §1, §2
as §3, with “Yield calculations were made for all cultures taking only added ethyl decanoate into account due to the volatility of decane and the lack of decanedioic acid formation following the initial induction period.” left out

Candida [2] = conditions: stated as background; cited from earlier work
[3] = system: Candida tropicalis (ATCC20962); assay: Fermentation procedure for conversion of decane to sebacic acid (Example 3); format: cell-based; conditions: GC at 44 hours after initiating the conversion phase, FIG. 16
Method: Filter sterilized modified SP92-glycerol fermentation medium (6.7 g/L yeast nitrogen base, 3.0 g/L yeast extract, 3.0 g/L (NH4)2SO4, 1.0 g/L K2HPO4, 1.0 g/L KH2PO4, 20 g/L glycerol) is transferred to a sterile fermentation vessel. Growth of Candida tropicalis (ATCC20962) is inoculated to an initial OD600nm of about 1.0 with a 5% inoculum and growth carried out under the following conditions: 30° C. with shaking at about 1000 rpm, 1 volume per volume per minute aeration (vvm), pH 5.8 and initial volume of 0.3 L. Growth proceeds for approximately 8 hours and the conversion phase is initiated by the addition of decane to 2 g/L. Continuous feeds for decane (1 g/L-h) and glucose (1.5 g/L-h) are initiated at the same time as the addition of the decane bolus. Fermentation conditions are maintained at 30° C., 1000 rpm, 1 vvm, and pH 5.8 for 44 hours.
Samples were collected for GC analysis at 44 hours after initiating the conversion phase. […] Significant evaporative losses from the decane feed bottles prevented an accurate determination of product yield.

Candida [4] = assay: Toxicity of feedstock or by-product to the yeast (viable cell counts); format: cell-based
Source text: Methyl esters of fatty acids can be converted to the corresponding diacid by beta-oxidation-blocked strains of Candida since Candida produces an esterase that demethylates the fatty acid ester during the omega-oxidation process, allowing conversion of methyl decanoate into the non-toxic diacid, sebacic acid. Unfortunately, having an excess of methyl decanoate in the fermentation broth prior to induction of the enzymes involved in omega-oxidation process results in sufficient demethylation of methyl decanoate to produce toxic levels of decanoic acid, resulting in rapid cell death and a failed fermentation. The standard fermentation procedure would utilize the feedstock (methyl decanoate) as inducer.
Growth was initiated with an inoculum of pre-culture to an initial OD600nm=1.0 and growth conditions of 35° C., 1000 rpm, 1 vvm, pH 5.8. Growth continued for approximately 10-12 h at which point the conversion phase was induced by the addition of either: 1) a bolus of 10 g/L of decane (Sigma-Aldrich #457116) for 6 h after which a continuous feed of methyl decanoate (TCI America #D0023) at 0.25 g/L-h was initiated or 2) no addition of decane. Induction was performed by initiating a continuous feed of methyl decanoate at 0.25 g/L-h. Because of the volatility of decane, the aeration rate was reduced to 0.3 vvm during the 6-h induction phase with decane as inducer. […]

CCCCCCCCCC(=O)OCC [Ethyl decanoate]
% improvement over ATTC 20962 sAA1082 (strain sAA1082): 58.9% | Feedstock Yield (g sebacic acid/g feedstock) sAA1082 (strain sAA1082; bioreactor, decane induction): 1.088 g sebacic acid/g feedstock | % improvement over ATTC 20962 sAA2178 (strain sAA2178): 50.7% | Feedstock Yield (g sebacic acid/g feedstock) sAA2178 (strain sAA2178; bioreactor, decane induction): 1.032 g sebacic acid/g feedstock | Feedstock Yield (g sebacic acid/g feedstock) ATCC 20962 [1]: 0.685 g sebacic acid/g feedstock

CCCCCCCCCC(=O)OC [methyl decanoate]
toxicity to Candida (Candida [2]): very low toxicity

CCCCCCCCCCCC(=O)O [Lauric acid]
toxicity to Candida (Candida [2]): not as toxic to Candida as is decanoic acid

CCCCCCCCCC [decane]
conversion of decane [3]: converted exclusively to the C10 dicarboxylic acid, sebacic acid

CCCCCCCCCC(=O)O [decanoic acid]
toxicity to Candida (viable cell count data) (Candida [4]): demonstrates the toxicity | toxicity to Candida (Candida [2]): high degree of toxicity

Reference: US20190010524A1, “BIOLOGICAL METHODS FOR PREPARING A FATTY DICARBOXYLIC ACID” (Verdezyne, Inc., priority 2012, published 2019)
